Results as given in PubChem BioAssay (NCI).
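Growth conditions: 96-well plates. Treatment: test compound, 48 hours, 5 concentrations. Analysis: linear interpolation between bracketing concentrations; unreached endpoints set to highest concentration. The concentration for full growth arrest is given as TGI.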

Columns and labels:
Test in all cases: growth of human tumour cells (NCI), 48 h
NCI-H23 lung = system: NCI-H23 lung
MALME-3M melanoma = system: MALME-3M melanoma
HOP-92 NSCLC = system: HOP-92 NSCLC
LOX IMVI melanoma = system: LOX IMVI melanoma
HOP-62 NSCLC = system: HOP-62 NSCLC
SF-539 CNS = system: SF-539 CNS
K-562 leukemia = system: K-562 leukemia
OVCAR-5 ovarian = system: OVCAR-5 ovarian
OVCAR-4 ovarian = system: OVCAR-4 ovarian
UO-31 renal = system: UO-31 renal
EKVX NSCLC = system: EKVX NSCLC
T-47D breast = system: T-47D breast
M14 melanoma = system: M14 melanoma
OVCAR-8 ovarian = system: OVCAR-8 ovarian
CAKI-1 renal = system: CAKI-1 renal
DU-145 prostate = system: DU-145 prostate
MDA-MB-231 breast = system: MDA-MB-231 breast
TK-10 renal = system: TK-10 renal
SNB-75 CNS = system: SNB-75 CNS
CCRF-CEM leukemia = system: CCRF-CEM leukemia
A498 renal = system: A498 renal
SW-620 colon = system: SW-620 colon
NCI-H226 lung = system: NCI-H226 lung
786-0 renal = system: 786-0 renal
KM12 colon = system: KM12 colon
U251 CNS = system: U251 CNS
MOLT-4 leukemia = system: MOLT-4 leukemia
COLO 205 colon = system: COLO 205 colon
PC-3 prostate = system: PC-3 prostate
SK-OV-3 ovarian = system: SK-OV-3 ovarian
HL-60(TB) leukemia = system: HL-60(TB) leukemia
OVCAR-3 ovarian = system: OVCAR-3 ovarian
MDA-N = system: MDA-N
SK-MEL-28 melanoma = system: SK-MEL-28 melanoma
NCI/ADR-RES ovarian = system: NCI/ADR-RES ovarian
IGROV1 ovarian = system: IGROV1 ovarian
UACC-62 melanoma = system: UACC-62 melanoma
SK-MEL-5 melanoma = system: SK-MEL-5 melanoma
SF-295 CNS = system: SF-295 CNS
HCT-116 colon = system: HCT-116 colon
HT29 colon = system: HT29 colon
HCC-2998 colon = system: HCC-2998 colon
SNB-19 CNS = system: SNB-19 CNS
MCF7 breast = system: MCF7 breast
BT-549 breast = system: BT-549 breast
SF-268 CNS = system: SF-268 CNS
SK-MEL-2 melanoma = system: SK-MEL-2 melanoma
ACHN renal = system: ACHN renal
SN12C renal = system: SN12C renal
UACC-257 melanoma = system: UACC-257 melanoma
HCT-15 colon = system: HCT-15 colon
A549 NSCLC = system: A549 NSCLC
HS 578T breast = system: HS 578T breast
NCI-H522 lung = system: NCI-H522 lung
RPMI-8226 leukemia = system: RPMI-8226 leukemia
MDA-MB-435 = system: MDA-MB-435
NCI-H460 lung = system: NCI-H460 lung
RXF 393 renal = system: RXF 393 renal
SR leukemia = system: SR leukemia

For `CC(=O)OCC1OC(OC2CC3C(C)(C)C(OC(C)=O)CC[C@]3(C)C3CCC45CC4(CCC5[C@@H](C)C[C@H](O)C(O)C(C)(C)O)[C@]23C)C(O)C(O)C1O` (some centres undefined), the TGI (NCI-H23 lung) was over 10 µM, the TGI (MALME-3M melanoma) was over 10 µM and the TGI (HOP-92 NSCLC) was over 10 µM. It also gave a TGI (LOX IMVI melanoma) of over 10 µM, a TGI (HOP-62 NSCLC) of over 10 µM and a TGI (SF-539 CNS) of over 10 µM. The TGI (K-562 leukemia) was over 10 µM, the TGI (OVCAR-5 ovarian) was over 10 µM and the TGI (OVCAR-4 ovarian) was over 10 µM. It also gave a TGI (UO-31 renal) of over 10 µM, a TGI (EKVX NSCLC) of over 10 µM and a TGI (T-47D breast) of over 10 µM. The TGI (M14 melanoma) was over 10 µM, the TGI (OVCAR-8 ovarian) was over 10 µM and the TGI (CAKI-1 renal) was over 10 µM. The TGI (DU-145 prostate) was over 10 µM, the TGI (MDA-MB-231 breast) was over 10 µM and the TGI (TK-10 renal) was over 10 µM. For the same compound, the TGI (SNB-75 CNS) was over 10 µM, the TGI (CCRF-CEM leukemia) was over 10000 nM and the TGI (A498 renal) was over 10 µM. For the same compound, the TGI (SW-620 colon) was over 10 µM, the TGI (NCI-H226 lung) was over 10 µM and the TGI (786-0 renal) was over 10 µM. The TGI (KM12 colon) was over 10 µM, the TGI (U251 CNS) was over 10 µM and the TGI (MOLT-4 leukemia) was over 10 µM. For the same compound, the TGI (COLO 205 colon) was over 10 µM, the TGI (PC-3 prostate) was over 10 µM and the TGI (SK-OV-3 ovarian) was over 10 µM. The TGI (HL-60(TB) leukemia) was over 10 µM, the TGI (OVCAR-3 ovarian) was over 10 µM and the TGI (MDA-N) was over 10 µM. The TGI (SK-MEL-28 melanoma) was over 10 µM, the TGI (NCI/ADR-RES ovarian) was over 10 µM and the TGI (IGROV1 ovarian) was over 10 µM. For the same compound, the TGI (UACC-62 melanoma) was over 10 µM, the TGI (SK-MEL-5 melanoma) was over 10 µM and the TGI (SF-295 CNS) was over 10 µM. For the same compound, the TGI (HCT-116 colon) was over 10 µM, the TGI (HT29 colon) was over 10 µM and the TGI (HCC-2998 colon) was over 10 µM. For the same compound, the TGI (SNB-19 CNS) was over 10 µM, the TGI (MCF7 breast) was over 10 µM and the TGI (BT-549 breast) was over 10 µM. For the same compound, the TGI (SF-268 CNS) was over 10 µM, the TGI (SK-MEL-2 melanoma) was over 10 µM and the TGI (ACHN renal) was over 10 µM. For the same compound, the TGI (SN12C renal) was over 10 µM, the TGI (UACC-257 melanoma) was over 10 µM and the TGI (HCT-15 colon) was over 10 µM. The TGI (A549 NSCLC) was over 10 µM, the TGI (HS 578T breast) was over 10 µM and the TGI (NCI-H522 lung) was over 10 µM. It also gave a TGI (RPMI-8226 leukemia) of over 10 µM, a TGI (MDA-MB-435) of over 10 µM and a TGI (NCI-H460 lung) of over 10 µM. It also gave a TGI (RXF 393 renal) of over 10 µM.

`CC(=O)C(=Cc1ccc(C=C(C(C)=O)C(C)=O)cc1)C(C)=O` showed a TGI (NCI-H23 lung) of 4.59 µM, a TGI (MALME-3M melanoma) of 4.84 µM and a TGI (HOP-92 NSCLC) of 5.87 µM. The TGI (LOX IMVI melanoma) was 1.91 µM, the TGI (HOP-62 NSCLC) was 6.38 µM and the TGI (SF-539 CNS) was 4.03 µM. The TGI (K-562 leukemia) was 6.12 µM, the TGI (OVCAR-5 ovarian) was 5.88 µM and the TGI (OVCAR-4 ovarian) was 6.76 µM. The TGI (UO-31 renal) was 3.1 µM, the TGI (EKVX NSCLC) was 8.76 µM and the TGI (T-47D breast) was 8.49 µM. It also gave a TGI (M14 melanoma) of 3.59 µM, a TGI (OVCAR-8 ovarian) of 14.6 µM and a TGI (CAKI-1 renal) of 4.75 µM. It also gave a TGI (DU-145 prostate) of 11.9 µM, a TGI (MDA-MB-231 breast) of 4.4 µM and a TGI (TK-10 renal) of 5.31 µM. It also gave a TGI (A498 renal) of 9.03 µM, a TGI (SW-620 colon) of 1.83 µM and a TGI (NCI-H226 lung) of 7.8 µM. The TGI (786-0 renal) was 5.84 µM, the TGI (KM12 colon) was 6.18 µM and the TGI (U251 CNS) was 4.24 µM. It also gave a TGI (MOLT-4 leukemia) of 3.6 µM, a TGI (COLO 205 colon) of 3.33 µM and a TGI (PC-3 prostate) of 5.17 µM. The TGI (SK-OV-3 ovarian) was 17 µM, the TGI (HL-60(TB) leukemia) was 4.52 µM and the TGI (OVCAR-3 ovarian) was 5 µM. The TGI (MDA-N) was 5.94 µM, the TGI (SK-MEL-28 melanoma) was 4.48 µM and the TGI (NCI/ADR-RES ovarian) was 11.2 µM. For the same compound, the TGI (IGROV1 ovarian) was 4.18 µM, the TGI (UACC-62 melanoma) was 4.02 µM and the TGI (SK-MEL-5 melanoma) was 3.36 µM. It also gave a TGI (SF-295 CNS) of 7.97 µM, a TGI (HCT-116 colon) of 1.81 µM and a TGI (HT29 colon) of 3.05 µM. It also gave a TGI (HCC-2998 colon) of 7.66 µM, a TGI (SNB-19 CNS) of 5.46 µM and a TGI (MCF7 breast) of 2.36 µM. The TGI (BT-549 breast) was 4.6 µM, the TGI (SF-268 CNS) was 3.97 µM and the TGI (SK-MEL-2 melanoma) was 5.54 µM. The TGI (ACHN renal) was 3.59 µM, the TGI (SN12C renal) was 3.07 µM and the TGI (UACC-257 melanoma) was 4.48 µM. It also gave a TGI (HCT-15 colon) of 3.44 µM, a TGI (A549 NSCLC) of 25.2 µM and a TGI (HS 578T breast) of 22.6 µM. For the same compound, the TGI (NCI-H522 lung) was 1.93 µM, the TGI (RPMI-8226 leukemia) was 1.71 µM and the TGI (MDA-MB-435) was 5.66 µM. For the same compound, the TGI (NCI-H460 lung) was 7.38 µM and the TGI (RXF 393 renal) was 3.51 µM.

For `Fc1ccc(C(OCCN2CCC3CCC(C2)N3C/C=C/c2ccco2)c2ccc(F)cc2)cc1` (centres undefined), the TGI (NCI-H23 lung) was 24 µM, the TGI (MALME-3M melanoma) was 21.7 µM and the TGI (HOP-92 NSCLC) was 19.1 µM. It also gave a TGI (LOX IMVI melanoma) of 24.2 µM, a TGI (HOP-62 NSCLC) of 36.5 µM and a TGI (SF-539 CNS) of 28.4 µM. The TGI (K-562 leukemia) was 20.7 µM, the TGI (OVCAR-4 ovarian) was 25.2 µM and the TGI (UO-31 renal) was 28.8 µM. For the same compound, the TGI (T-47D breast) was 20.8 µM, the TGI (M14 melanoma) was 18.8 µM and the TGI (OVCAR-8 ovarian) was 19.6 µM. The TGI (CAKI-1 renal) was 27.9 µM, the TGI (DU-145 prostate) was 34.6 µM and the TGI (MDA-MB-231 breast) was 23.6 µM. The TGI (TK-10 renal) was 21.5 µM, the TGI (SNB-75 CNS) was 30 µM and the TGI (CCRF-CEM leukemia) was 419 nM. The TGI (A498 renal) was 23.3 µM, the TGI (SW-620 colon) was 21.6 µM and the TGI (NCI-H226 lung) was 28.8 µM. The TGI (786-0 renal) was 22.2 µM, the TGI (KM12 colon) was 30.6 µM and the TGI (U251 CNS) was 21.1 µM. It also gave a TGI (SR leukemia) of 42.7 µM, a TGI (MOLT-4 leukemia) of 20.4 µM and a TGI (COLO 205 colon) of 13.3 µM. It also gave a TGI (PC-3 prostate) of 20.6 µM, a TGI (SK-OV-3 ovarian) of 30.3 µM and a TGI (OVCAR-3 ovarian) of 27.5 µM. The TGI (MDA-N) was 25.9 µM, the TGI (SK-MEL-28 melanoma) was 19.5 µM and the TGI (NCI/ADR-RES ovarian) was 22.4 µM. It also gave a TGI (IGROV1 ovarian) of 21 µM, a TGI (UACC-62 melanoma) of 26.7 µM and a TGI (SK-MEL-5 melanoma) of 14.4 µM. The TGI (SF-295 CNS) was 27.7 µM, the TGI (HCT-116 colon) was 18.5 µM and the TGI (HCC-2998 colon) was 18.4 µM. The TGI (SNB-19 CNS) was 32.8 µM, the TGI (MCF7 breast) was 22.7 µM and the TGI (BT-549 breast) was 25.7 µM. The TGI (SF-268 CNS) was 25.9 µM, the TGI (SK-MEL-2 melanoma) was 26.2 µM and the TGI (ACHN renal) was 25.3 µM. The TGI (SN12C renal) was 24.8 µM, the TGI (UACC-257 melanoma) was 17.4 µM and the TGI (HCT-15 colon) was 18.6 µM. It also gave a TGI (A549 NSCLC) of 29.5 µM, a TGI (HS 578T breast) of 34.3 µM and a TGI (NCI-H522 lung) of 20.5 µM. The TGI (RPMI-8226 leukemia) was 17.3 µM, the TGI (MDA-MB-435) was 26.5 µM and the TGI (NCI-H460 lung) was 24.5 µM. The TGI (RXF 393 renal) was 15.7 µM.
